# Experimental data published in patent US20260235623A1, “EFFECT INDUCED BY A SODIUM-GLUCOSE COTRANSPORTER INHIBITOR (SGLTi) IN A SUBJECT SUFFERING FROM A CARDIOVASCULAR DISEASE” (Roche Diagnostics Operations, Inc., priority 2023, published 2026).
# Where two headings read alike, the source gives them in different places.
# What was measured:
# [1] = system: FABP3/GDF-15; details: for median FABP3/GDF-15 ratio: FABP3 in ng/ml, GDF-15 in pg/mL, baseline median ratio 0.017
# From the text: (§1) A total of 100 patients with stable chronic HFrEF participating in a prospective registry at the heart failure outpatient clinic at the Medical University of Vienna, which has been imputed with all clinically relevant data, are included in the present study. The inclusion criteria of the registry are documented chronic HFrEF, an age of at least 18 years and stable heart failure related medical therapy in the last 3 months. Inclusion criteria for this study is the participation in the registry, and the absence of any exclusion criteria avoiding the prescription of SGLT-2 inhibitor (Dapagliflozin). Visits at the outpatient clinic are conducted at baseline (visit 0), at week 4 after SGLT-2 inhibitor therapy initiation (visit 1), after 3 month (visit 2), after 6 months (visit 3), and every 6 months thereafter.
# (§2) Blood and urine samples are drawn from a peripheral vein and collected at baseline prior to administration of the SGLT-2 inhibitor and repeated at every regularly scheduled study-visit. Samples are used for (1.) routine laboratory analysis and (2.) biobank storage.
# (§3) Blood for the biobank is immediately centrifuged and plasma samples are stored at-80° C. for future analysis. The plasma samples and urine samples are stored in the central “biobank” facility of the Department of Laboratory Medicine at the Medical University of Vienna.
# (§4) FABP3 and additional cardiac biomarkers N-terminal B-type natriuretic peptide (NT-proBNP) and GDF-15 are measured in plasma using the Elecsys Systems (Roche Diagnostics, Mannheim, Germany).
# [2] = system: FABP3/NT-proBNP; details: for median FABP3/NT-proBNP ratio: FABP3 in ng/ml, NT-proBNP in pg/mL, baseline median ratio 0.026
# From the text: as §1, §2, §3, §4
# [3] = system: FABP3; details: for amount of FABP3 higher compared to baseline: 3 months (V2)
# From the text: as §1, §2, §3, §4
# [4] = system: GDF-15; details: baseline median 2439.34
# From the text: as §1, §2, §3, §4
# [5] = system: NT-proBNP; details: for median NT-proBNP concentration: baseline median 1396.30; for change of amount of NT-proBNP before and after initiation: before and after SGLT2i initiation
# From the text: as §1, §2, §3, §4
# [6] = after 6 months (V3), vs. baseline
# [7] = V1: week 4 after SGLT2i therapy initiation
compound,measurement,setting,value
"CCOc1ccc(Cc2cc([C@@H]3O[C@H](CO)[C@@H](O)[C@H](O)[C@H]3O)ccc2Cl)cc1 [SGLT2i, Dapagliflozin]",median FABP3/GDF-15 ratio,[1]; V1: week 4,0.016
same,median FABP3/GDF-15 ratio,[1]; V2: 3 months,0.016
same,median FABP3/GDF-15 ratio,[1]; V3: 6 months,0.016
same,median FABP3/GDF-15 ratio,[1]; V4: 12 months,0.019
same,change of FABP3/GDF-15 ratio after initiation,[1]; after SGLT2i initiation,remains stable
same,peak of relative increase of FABP3/GDF-15 ratio,"[1]; at 12 months (V4), vs. baseline",12%
same,median FABP3/NT-proBNP ratio,[2]; V1: week 4,0.032
same,median FABP3/NT-proBNP ratio,[2]; V2: 3 months,0.039
same,median FABP3/NT-proBNP ratio,[2]; V3: 6 months,0.046
same,median FABP3/NT-proBNP ratio,[2]; V4: 12 months,0.033
same,peak of relative increase of FABP3/NT-proBNP ratio,[2]; [6],77%
same,change of FABP3/NT-proBNP ratio after initiation,[2]; over time after SGLT2i initiation,increases over time
same,relative increase of FABP3 concentration alone,[3]; [6],19%
same,change in plasma concentration of FABP3 after therapy initiation,[3]; chronic HFrEF patients,increase in plasma concentration of FABP3
same,median FABP3 plasma concentration,"[3]; chronic HFrEF patients, V1: week 4 after SGLT2i therapy initiation, baseline median 37.82",40.86 ng/mL
same,median FABP3 plasma concentration,"[3]; chronic HFrEF patients, V2: 3 months, baseline median 37.82",45.14 ng/mL
same,median FABP3 plasma concentration,"[3]; chronic HFrEF patients, V3: 6 months, baseline median 37.82",44.36 ng/mL
same,FABP3 plasma concentration,"[3]; chronic HFrEF patients, V4: 12 months, baseline median 37.82",44.47 ng/mL
same,amount of FABP3 higher compared to baseline,[3]; patient subgroup with high baseline FABP3 (above 37.8 ng/ml),about 14%
same,amount of FABP3 higher compared to baseline,[3]; patient subgroup with low baseline FABP3 (below 37.8 ng/ml),about 27%
same,median FABP3 concentration,"[3]; patients with high baseline FABP3 (above 37.8 ng/ml), V1: week 4, baseline median 47.97",53.56 ng/mL
same,median FABP3 concentration,"[3]; patients with high baseline FABP3 (above 37.8 ng/ml), V2: 3 months, baseline median 47.97",54.73 ng/mL
same,median FABP3 concentration,"[3]; patients with high baseline FABP3 (above 37.8 ng/ml), V3: 6 months, baseline median 47.97",54.51 ng/mL
same,FABP3 concentration,"[3]; patients with high baseline FABP3 (above 37.8 ng/ml), V4: 12 months, baseline median 47.97",53.23 ng/mL
same,median FABP3 concentration,"[3]; patients with low baseline FABP3 (below 37.8 ng/mL), V1: week 4, baseline median 29.05",31.41 ng/mL
same,median FABP3 concentration,"[3]; patients with low baseline FABP3 (below 37.8 ng/mL), V2: 3 months, baseline median 29.05",38.86 ng/mL
same,median FABP3 concentration,"[3]; patients with low baseline FABP3 (below 37.8 ng/mL), V3: 6 months, baseline median 29.05",36.41 ng/mL
same,FABP3 concentration,"[3]; patients with low baseline FABP3 (below 37.8 ng/mL), V4: 12 months, baseline median 29.05",36.76 ng/mL
same,time for which the FABP3 increase is apparent,[3]; under SGLTi treatment,≥ 12 months
same,median GDF-15 concentration,[4]; [7],2657.16 pg/mL
same,median GDF-15 concentration,[4]; V2: 3 months,3036.18 pg/mL
same,median GDF-15 concentration,[4]; V3: 6 months,2414.01 pg/mL
same,median GDF-15 concentration,[4]; V4: 12 months,2039.85 pg/mL
same,median NT-proBNP concentration,[5]; [7],1115.68 pg/mL
same,median NT-proBNP concentration,[5]; V2: 3 months,1191.95 pg/mL
same,median NT-proBNP concentration,[5]; V3: 6 months,889.21 pg/mL
same,median NT-proBNP concentration,[5]; V4: 12 months,1172.84 pg/mL
same,change of amount of NT-proBNP before and after initiation,[5],does not correlate
same,change of amount of NT-proBNP before and after initiation,[5]; listed as SGLTi,does not significantly change
